Source: patent US20250129088A1, “CEREBLON E3 UBIQUITIN LIGASE INHIBITOR” (Gan & Lee Pharmaceuticals Co., Ltd., priority 2022, published 2025)

How the values were obtained:
Format in all cases: cell-based
T-47D cells = test: T-47D cell proliferation inhibition, CCK-8; conditions: Homo sapiens, T47D, 144 h, 6 days
Procedure: The complete medium required for T-47D cells is 1640 (ATCC, Product number: A10491-01) basal medium containing 10% fetal bovine serum. T-47D cells were seeded in a 96-well plate at a density of 3,000/well, and different concentrations of the compound of the present invention and the positive control sample ARV-471 (source: Innochem) were prepared to treat the cells. The cells were incubated at 37° C., 5% for 6 days in a CO2 cell incubator. Cell viability was detected using the CCK-8 kit (Beyotime, Product number: C0040) according to the manufacturer's instructions. According to the inhibition rate, the GraphPadPrism software was used to calculate the IC50 value of each compound for 6 days, and the results are shown in Table 17.

MCF-7 cells = test: MCF-7 cell proliferation inhibition, CCK-8; conditions: Homo sapiens, MCF7, 216 h, MCF-7, 9 days
Procedure: The complete medium required for MCF-7 cells is DMEM (gibco, Product number: 11995-065) basal medium containing 10% fetal bovine serum. MCF-7 cells were seeded in a 96-well plate at a density of 800/well, and different concentrations of the compound of the present invention and the positive control sample ARV-471 (source: Enochem) were prepared to treat the cells. The cells were incubated at 37° C., 5% 9 days in a CO2 cell incubator. Cell viability was detected using the CCK-8 kit (Beyotime, Product number: C0040) according to the manufacturer's instructions. According to the inhibition rate, GraphPadPrism software was used to calculate the IC50 value of each compound for 9 days, and the results are shown in Table 18.

MOLM-13 cells = test: MOLM-13 cell proliferation inhibition, CCK-8; conditions: Homo sapiens, 96 h, MOLM-13, 4 days, Table 9
Procedure: The complete medium required for MOLM-13 cells is 1640 (ATCC, Product number: 30-2001) basal medium containing 20% fetal bovine serum. MOLM-13 cells were seeded in a 96-well plate at a density of 7,500 cells/well, and different concentrations of the compounds of the present invention were prepared to treat the cells at the same time. The cells were incubated in a 37° C., 5% CO2 cell culture incubator for 4 days. Cell viability was detected using the CCK-8 kit (Beyotime, Product number: C0040) according to the manufacturer's instructions. According to the inhibition rate, GraphPad Prism software was used to calculate the IC50 value of each compound for 4 days, and the results are shown in Table 9-10.

K562 cells = test: K562 cell proliferation inhibition, CCK-8; conditions: Homo sapiens, 96 h, K562, 4 days, Table 12, positive control dBET6
Procedure: The complete medium required for K562 cells is IMDM (ATCC, Product number: 30-2005) basal medium containing 10% fetal bovine serum. K562 cells were seeded in a 96-well plate at a density of 7,500 cells/well, and different concentrations of the compound of the present invention and positive control samples Alisertib (source: Bide Pharmaceuticals) and dBET6 (source: Bide Pharmaceuticals) were prepared to treat the cells. The cells were incubated at a 37° C., 5% CO2 cell culture incubator for 4 days.
Cell viability was detected using the CCK-8 kit (Beyotime, Product number: C0040) according to the manufacturer's instructions. According to the inhibition rate, GraphPad Prism software was used to calculate the IC50 value of each compound for 4 days, and the results are shown in Table 11-12.

HeLa cells = test: HeLa cell proliferation inhibition, CCK-8; conditions: Homo sapiens, 72 h, 3 days
Procedure: The complete medium required for HeLa cells is DMEM high glucose (Gibco, Product number: 11995-065) basal medium containing 10% fetal bovine serum. HeLa cells were seeded in a 96-well plate at a density of 4,000 cells/well, and the next day, different concentrations of the compound of the present invention and the positive control sample Ceritinib (source: Bide Pharmaceuticals) were prepared to treat the cells. The cells were incubated at 37° C., 5% CO2 cell culture incubator for 3 days. Cell viability was detected using the CCK-8 kit (Beyotime, Product number: C0040) according to the manufacturer's instructions. According to the inhibition rate, GraphPad Prism software was used to calculate the IC50 value of each compound for 3 days, and the results are shown in Table 2.

A549 cells = test: A549 cell proliferation inhibition, CCK-8; conditions: Homo sapiens, 96 h, A549, 4 days
Procedure: The complete medium required for A549 cells is F-12K (ATCC, Product number: 30-2004) basal medium containing 10% fetal bovine serum. A549 cells were seeded in a 96-well plate at a density of 2,800 cells/well, and the next day, different concentrations of the compound of the present invention and a positive control sample Ceritinib (source: Bide Pharmaceuticals) were prepared to treat the cells. The cells were incubated at 37° C., 5% CO2 cell incubator for 4 days. Cell viability was detected using the CCK-8 kit (Beyotime, Product number: C0040) according to the manufacturer's instructions. According to the inhibition rate, the GraphPad Prism software was used to calculate the IC50 value of each compound for 4 days, and the results are shown in Table 3.

SMILES | IC50 (HeLa cells) [µM] | IC50 (A549 cells) [µM] | also measured
O=C1CCC(N2Cc3cc4c(cc3C2=O)CCC2(CN(C3CCC5(CC3)CCN(c3ccc([C@@H]6c7ccc(O)cc7CC[C@@H]6c6ccccc6)cc3)CC5)C2)O4)C(=O)N1 (stereo partly drawn) [PROTAC 52, 3-(1-(3-(4-((1R,2S)-6-hydroxy-2-phenyl-1,2,3,4-tetrahydronaphthalen-1-yl)phenyl)-3-azaspiro [5.5]undec-9-yl)-6′-oxo-3′,4′,6′,8′-tetrahydro-7′H-spiro[azetidine-3,2′-pyrano[2,3]isoindol]-7′-yl)piperidine-2,6-dione] |  |  | IC50 (T-47D cells): 0.0092 µM; IC50 (MCF-7 cells): 0.03 µM
Cc1nc(Nc2ncc(C(=O)Nc3c(C)cccc3Cl)s2)cc(N2CCN(CCOCCC(=O)N3CCC4(CC3)COc3cc5c(cc3C4)C(=O)N(C3CCC(=O)NC3=O)C5=O)CC2)n1 (stereo not drawn) [PROTAC 10, N-(2-chloro-6-methylphenyl)-2-((6-(4-(2-(3-(7′-(2,6-dioxopiperidin-3-yl)-6′,8′-dioxo-4′,6′,7′,8′-tetrahydro-2′H-spiro[piperidine-4,3′-pyrano[2,3-f]isoindole]-1-yl)-3-oxopropoxy)ethyl)piperazin-1-yl)-2-methylpyrimidin-4-yl)amino)thiazole-5-carboxamide] |  |  | IC50 (MOLM-13 cells): 1.05 µM; IC50 (K562 cells): 0.017 µM
Cc1cc(Nc2ncc(Cl)c(Nc3ccccc3S(=O)(=O)C(C)C)n2)c(OC(C)C)cc1C1CCN(CCOCCC(=O)N2CCC3(CC2)COc2cc4c(cc2C3)C(=O)N(C2CCC(=O)NC2=O)C4=O)CC1 (stereo not drawn) [PROTAC 30, 1-(3-(2-(4-(4-((5-chloro-4-((2-(isopropylsulfonyl)phenyl)amino)pyrimidin-2-yl)amino)-5-isopropoxy-2-methylphenyl)piperidin-1-yl)ethoxy)propionyl)-7′-(2,6-dioxopiperidin-3-yl)-2′H-spiro[piperidine-4,3′-pyrano[2,3-f]isoindole]-6′,8′(4′H,7′H)-dione] | 3.09 | 4.38 | 
Cc1cc(Nc2ncc(Cl)c(Nc3ccccc3S(=O)(=O)C(C)C)n2)c(OC(C)C)cc1C1CCN(CCOCCC(=O)N2CCC3(CCc4cc5c(cc4O3)C(=O)N(C3CCC(=O)NC3=O)C5=O)CC2)CC1 (stereo not drawn) [PROTAC 29, 1-(3-(2-(4-(4-((5-chloro-4-((2-(isopropylsulfonyl)phenyl)amino)pyrimidin-2-yl)amino)-5-isopropoxy-2-methylphenyl)piperidin-1-yl)ethoxy)propionyl)-7′-(2,6-dioxopiperidin-3-yl)-3′,4′-dihydro-6′H-spiro[piperidine-4,2′-pyrano[2,3-f]isoindole]-6′,8′(7′H)-dione] | 5.41 | 4.34 | 
Cc1cc(Nc2ncc(Cl)c(Nc3ccccc3S(=O)(=O)C(C)C)n2)c(OC(C)C)cc1C1CCN(CCOCCC(=O)N2CC3(CCc4cc5c(cc4O3)C(=O)N(C3CCC(=O)NC3=O)C5)C2)CC1 (stereo not drawn) [PROTAC 28, 3-(1-(3-(2-(4-(4-((5-chloro-4-((2-(isopropylsulfonyl)phenyl)amino)pyrimidin-2-yl)amino)-5-isopropoxy-2-methylphenyl)piperidin-1-yl)ethoxy)propionyl)-8′-oxo-3′,4′,6′,8′-tetrahydro-7′H-spiro[azetidine-3,2′-pyrano[2,3-f]isoindole]-7′-yl)piperidine-2,6-dione] | 4.36 | 6.81 | 
Cc1nc(Nc2ncc(C(=O)Nc3c(C)cccc3Cl)s2)cc(N2CCN(CCOCCC(=O)N3CCC4(CC3)COc3cc5c(cc34)C(=O)N(C3CCC(=O)NC3=O)C5=O)CC2)n1 (stereo not drawn) [PROTAC 12, N-(2-chloro-6-methylphenyl)-2-((6-(4-(2-(3-(6-(2,6-dioxopiperidin-3-yl)-5,7-dioxo-6,7-dihydro-2H,5H-spiro[furo[2,3-f]isoindole-3,4′-piperidin]-1′-yl)-3-oxopropoxy)ethyl)piperazin-1-yl)-2-methylpyrimidin-4-yl)amino)thiazole-5-carboxamide] |  |  | IC50 (MOLM-13 cells): 4.77 µM; IC50 (K562 cells): 0.04 µM
Cc1cc(Nc2ncc(Cl)c(Nc3ccccc3S(=O)(=O)C(C)C)n2)c(OC(C)C)cc1C1CCN(CCOCCC(=O)N2CCC3(CCc4cc5c(cc4O3)CN(C3CCC(=O)NC3=O)C5=O)CC2)CC1 (stereo not drawn) [PROTAC 25] | 2.19 | 7.02 | 
Cc1cc(Nc2ncc(Cl)c(Nc3ccccc3S(=O)(=O)C(C)C)n2)c(OC(C)C)cc1C1CCN(CCOCCC(=O)N2CCC3(CC2)COc2cc4c(cc23)C(=O)N(C2CCC(=O)NC2=O)C4=O)CC1 (stereo not drawn) [PROTAC 31, 1′-(3-(2-(4-(4-((5-chloro-4-((2-(isopropylsulfonyl)phenyl)amino)pyrimidin-2-yl)amino)-5-isopropoxy-2-methylphenyl)piperidin-1-yl)ethoxy)propionyl)-6-(2,6-dioxopiperidin-3-yl)-6-hydrogen-2H,5H-spiro[furo[2,3-f]isoindole-3,4′-piperidine]-5,7-dione] | 4.65 | 10.2 | 
Cc1cc(Nc2ncc(Cl)c(Nc3ccccc3S(=O)(=O)C(C)C)n2)c(OC(C)C)cc1C1CCN(CCOCCC(=O)N2CCC3(CCc4cc5c(cc4O3)C(=O)N(C3CCC(=O)NC3=O)C5)CC2)CC1 (stereo not drawn) [PROTAC 26, 3-(1-(3-(2-(4-(4-((5-chloro-4-((2-(isopropylsulfonyl)phenyl)amino)pyrimidin-2-yl)amino)-5-isopropoxy-2-methylphenyl)piperidin-1-yl)ethoxy)propionyl)-8′-oxo-3′,4′,6′,8′-tetrahydro-7′H-spiro[piperidine-4,2′-pyrano[2,3-f]isoindole]-7′-yl)piperidine-2,6-dione] | 4.33 | 4.27 | 
Cc1cc(Nc2ncc(Cl)c(Nc3ccccc3S(=O)(=O)C(C)C)n2)c(OC(C)C)cc1C1CCN(CCOCCC(=O)N2CC3(CCc4cc5c(cc4O3)CN(C3CCC(=O)NC3=O)C5=O)C2)CC1 (stereo not drawn) [PROTAC 27, 3-(1-(3-(2-(4-(4-((5-chloro-4-((2-(isopropylsulfonyl)phenyl)amino)pyrimidin-2-yl)amino)-5-isopropoxy-2-methylphenyl)piperidin-1-yl)ethoxy)propionyl)-6′-oxo-3′,4′,6′,8′-tetrahydro-7′H-spiro[azetidine-3,2′-pyrano[2,3-f]isoindole]-7′-yl)piperidine-2,6-dione] | 4.27 | 11.4 | 
Cc1nc(Nc2ncc(C(=O)Nc3c(C)cccc3Cl)s2)cc(N2CCN(CCOCCC(=O)N3CCC4(CCc5cc6c(cc5O4)C(=O)N(C4CCC(=O)NC4=O)C6=O)CC3)CC2)n1 (stereo not drawn) [PROTAC 9, N-(2-chloro-6-methylphenyl)-2-((6-(4-(2-(3-(7′-(2,6-dioxopiperidin-3-yl)-6′,8′-dioxo-4′,6′,7′,8′-tetrahydro-3′H-spiro[piperidine-4,2′-pyrano[2,3-f]isoindol]-1-yl)-3-oxopropoxy)ethyl)piperazin-1-yl)-2-methylpyrimidin-4-yl)amino)thiazole-5-carboxamide] |  |  | IC50 (MOLM-13 cells): 1.11 µM; IC50 (K562 cells): 0.016 µM
Cc1cc(Nc2ncc(Cl)c(Nc3ccccc3S(=O)(=O)C(C)C)n2)c(OC(C)C)cc1C1CCNCC1 [Ceritinib, reference compound] | 5.99 | 4.31 | 
